# According to patent US20130274196A1, “METHOD FOR TREATMENT OF INFLAMMATORY DISEASE AND DISORDER” (HEALOR LTD., priority 2010, published 2013):
# Entries after “also recorded” stand apart in the source; their conditions may differ. The star is where a group is joined. Myristoyl = CCCCCCCCCCCCCC(=O)*
# Assays:
# splenocytes = assay: Cytokine secretion in LPS stimulated splenocytes treated with PKCδ activator; type: cell-based
# Method: (§1) PKCδ activators were also shown to have an anti-inflammatory effect on keratinocytes and splenocytes. Keratinocytes were derived from newborn BALB/C mice skin. The cells were incubated for 5 days in 24 wells plate. Cells were then incubated with PBS −/− as control or stimulated by LPS or TNFα. The PKCδ […] DAP-1 (SEQ ID NO: 34) was added. Medium containing secreted cytokines was collected after 48 hr and analyzed using ELISA. FIG. 43 is a tabular summary showing cytokine secretion in splenocytes stimulated with LPS. FIG. 44 is a tabular summary of cytokine secretion in keratinocytes stimulated by TNFα.
# keratinocytes [1] = assay: Cytokine secretion in stimulated keratinocytes treated with PKCδ activator (ELISA); type: cell-based, BALB/C mice; details: stimulated by LPS or TNFα, 48 hr
# Method: as §1
# C57BL mice = assay: Incision wounds treated 7 days, severe inflammation incidence (Example 10); type: in vivo; details: 1 μM daily for 7 days
# Method: Wounds were performed on the back of C57BL mice by incision and were treated daily for 7 days with: (i) PBS, control; (ii) 1 μM of the PKCα inhibitor of SEQ ID NO: 6; (iii) 1 μM insulin (Humulin, Eli Lilly, USA); or (iv) a mixture of 1 μM PKCα inhibitor and 1 μM insulin.
# EAE mice = assay: Experimental allergic encephalomyelitis (EAE), MOG35-55/CFA immunized mice; type: in vivo, C57BL/6J mice; details: for Score on day 18 / Score on day 29 / Score on day 37: EAE scale 0-6; for EAE score on the initial day: scale 0-6
# keratinocytes [2] = assay: Cytokine secretion in LPS, TNFα or IL-17 activated keratinocytes treated with peptide PKCα inhibitors (ELISA); type: cell-based, BALB/C mice
# Method: To determine their effects, keratinocytes were derived from newborn BALB/C mice skin. The cells were incubated for 5 days in 24 wells plate. Cells were then incubated with PBS −/− as control or stimulated by LPS, TNFα, or IL-17. PKCα inhibitors were added as indicated. Medium containing secreted cytokines was collected after 48 hr and analyzed using ELISA. FIG. 50 is a tabular summary of cytokine secretion.
# macrophages = assay: Macrophage infiltration in skin wound (Iba-1 staining); type: in vivo, C57BL/6J mouse; details: daily treatment, five days post-wounding
# Method: The effect of MPDY-1 on macrophage infiltration was also shown by Iba-1 staining. Iba-1 is a general marker for macrophages. […] As above, a two-cm longitudinal incision was done on the upper back of a C57BL/6J mouse. Following wounding, a sterile pad was sutured to the mouse's skin. Animals were treated daily with MPDY-1 (n=6). Five days post-wounding, when inflammatory phase reaches its peak, the mice were sacrificed, skin tissues were embedded in paraffin and immunohistochemical staining was performed utilizing anti-Iba-1 antibodies.
# IKK = assay: TNFα induced IKK activation in keratinocytes (phospho-IKKa/b Western blot); type: cell-based, Murine; details: 1 hour pretreatment, TNFα 35 ng/ml 15 minutes
# Method: Murine primary keratinocytes were grown for 4 days to full confluence in Low Ca^+2 MEM. Cells were pretreated with designated concentration of MPDY-1 as described in the figure for 1 hour, prior to TNFα induction. Following MPDY-1 pretreatment, cells were incubated with TNFα 35 ng/ml for 15 minutes. Reaction was stopped by adding ice-cold dPBS−/− and keratinocytes were homogenized in RIPA buffer. Samples were subjected to SDS PAGE Western Blot analysis, utilizing phospho-IKKa/b (Ser176/180 antibody).
# [3] = tested on: histamine induced pruritus; assay: Histamine prick test model of pruritus; type: in vivo, healthy volunteers; details: for Pruritus score: scale 0-4, individual subject
# Method: Forearms of individual subjects were injected with histamine solution and placebo. The formulation of Example 4 was topically applied with MPDY-1 at various concentrations and pruritus was assessed over a time course as shown in FIGS. 39-42.
# This test was performed by placing a drop of a solution containing a possible allergen on the skin, and a series of scratches or needle pricks allow the solution to enter the skin. The extract enters into the outer layer of the skin (epidermis) using a fine needle (such as a. 26G disposable needle). This testing is not painful, and generally there is no bleeding involved since the needle only scratches the surface of the skin. If the skin develops a red, raised itchy area (called a wheal), it is as a result of allergic reaction to that allergen. This is called a positive reaction. A drop of extract is introduced through a fine needle (such as a No. 26 disposable needle). The test causes no discomfort and minimal trauma so that controls and negative test show only the site of the prick; if anything.
# 26G needles were utilized to introduce histamine stock (Histatrol Positive Control Histamine, 1 mg/ml, code #HIST14999V, Trupharm). The test was conducted on healthy volunteers in a double-blind, randomized test. The formulations were applied on the forearms. Three treatment areas were chosen and marked (the surface of the forearm from the elbow to the wrist was divided transversely into proximal, middle and distal thirds); the areas were pricked prior the below treatments.
# An area was treated with the active formulation in a double-blind manner, for 10 minutes—marked as A.
# An area was treated with the Placebo in a double-blind manner, for 10 minutes—marked as C.
# A color photograph was taken at time zero (T0), after 10, 20, 30 minutes.
# Pruritus questionnaire was answered by the subjects 5 and 15 minutes after treatment.
# Subjects were provided with pruritus sensation forms and asked to indicate the level of pruritus sensed from 0 (no response) to 4 (uncontrollable pruritus) at different time intervals.
# [4] = tested on: STZ-induced diabetic C57BL/6J mice; assay: Wound healing in STZ-induced diabetic mice; type: in vivo
# Method: Full thickness skin incisions (20 mm) were performed on the upper back of anesthetized streptozocin (STZ)-injected (175 mg/kg body weight) diabetic, citrate buffer injected (6 mice/group) non-diabetic, and non-injected (6 mice/group), C57BL/6J mice. Periodical blood glucose monitoring was performed by measuring glucose levels from tail vein after STZ injection. […] Following incision, STZ-induced diabetic wounds were treated daily by application of PBS (7/6 mice/group), insulin (0.1 units/ml) (6 mice/group), the PKCa inhibitor of SEQ ID NO:6 (1 μg/ml) (7/5 mice/group) or a formulation (herein designated HO/03/03) containing insulin and the N-myristoylated PKCα inhibitor of SEQ ID NO: 6 (7/6 mice/group) directly to the surgical dressing. Biopsies were collected 9 days post-wounding. Wounds were excised from euthanized animals for evaluation of wound-healing parameters by histology and immunohistochemistry.
# Wounds were assessed for epidermal closure by Keratin 14 staining. Wounds were considered closed when complete epidermal staining was observed across the wound gap. Dermal contraction was considered when both dermal edges were visible in a fixed field ×100 magnification utilizing H&E staining. Epidermal differentiation was assessed by Keratin 1 staining.
# The organization of hypodermis was assessed by the presence (or absence) of hypodermis at both wound edges. Granulation tissue formation was assessed by the presence of fibroblasts and collagen fibers in the wound bed. The wound was considered positive for granulation tissue formation when a continuous layer of granulation tissue was present in the wound gap. In addition, we have defined 3 specific histological parameters characterizing severe inflammation of diabetic wounds: (i) abscess formation at the wounded area, (ii) excessive leukocytosis (>100 cells in a fixed field (×200)) and (iii) high white blood cells (WBC)/red blood cells (RBC) ratio within the blood vessels shown in a fixed field (×200). When at least 2 of these parameters are present at the wound gap, the wound is considered severely inflamed.
# activated macrophages = assay: Macrophage activation in skin wound (MAC-2 staining); type: in vivo, C57BL/6J mouse; details: daily treatment, 5 days; p(control vs 10 μg)=0.0028
# Method: The effect of MPDY-1 on macrophage activation was also shown by MAC-2 staining. MAC-2 is a specific marker for activated macrophages. […] A two-cm longitudinal incision was done as described above. Animals were treated daily with DPBS^−/− (Control) or MPDY-1 in the specified concentrations (n=6). After 5 days immunohistochemical staining was performed utilizing anti-MAC-2 antibodies. Bar […]. (*p(control Vs. MPDY-1 10 μg)=0.0028).
# [5] = 9-days post wounding, percent of wounds in group, insulin 0.1 units, HO/02 1 ug/ml
# [6] = 9-days post wounding, percent of wounds in group, insulin 0.1 units, SEQ ID NO: 6 1 ug/ml
substance,measurement,setting,value
H-His-Phe-Glu-Asp-Trp-Ile-Asp-His-Phe-Glu-Asp-Trp-Ile-Asp-OH (H-HFEDWIDHFEDWID-OH) [DAP-1],inflammatory cytokine secretion in splenocytes,splenocytes,significantly decease inflammatory cytokine secretion
same,inflammatory cytokine secretion in keratinocytes,keratinocytes [1],significantly decease inflammatory cytokine secretion
Myristoyl-Phe-Ala-Arg-Lys-Gly-Ala-Leu-Arg-Gln-OH (Myristoyl-FARKGALRQ-OH; SMILES CCCCCCCCCCCCCC(=O)N[C@@H](Cc1ccccc1)C(=O)N[C@@H](C)C(=O)N[C@@H](CCCNC(=N)N)C(=O)N[C@@H](CCCCN)C(=O)NCC(=O)N[C@@H](C)C(=O)N[C@@H](CC(C)C)C(=O)N[C@@H](CCCNC(=N)N)C(=O)N[C@@H](CCC(N)=O)C(=O)O) [MPDY-1],"decrease of severe wound inflammation incidence, as compared to control",C57BL mice,33.3%
same,Incidence of severe inflammation in wound (%),C57BL mice; PBS control 60,40%
same,The initial day (of illness signs),EAE mice; 0.1 mg/kg,13 days
same,EAE severity / score compared to control group,EAE mice; 0.1 mg/kg (0.1 μg/ml),lower score during most of the experiment days; also recorded: reduced EAE severity
same,delay of development of EAE clinical conditions compared to control group,EAE mice; 0.1 mg/kg (0.1 μg/ml),two days later than the control group; also recorded: two days delay
same,Score on day 18,EAE mice; 0.1 mg/kg,2.571
same,Score on day 29,EAE mice; 0.1 mg/kg,2.000
same,Score on day 37,EAE mice; 0.1 mg/kg,1.500
same,EAE score on the initial day,EAE mice; 0.1 mg/kg,1.000
same,The initial day (of illness signs),EAE mice; 1 mg/kg,11 days
same,Number of dead mice during 49 days,"EAE mice; 1 mg/kg i.p. three times a week, n=7",2
same,Score on day 18,EAE mice; 1 mg/kg,3.143
same,Score on day 29,EAE mice; 1 mg/kg,3.286
same,Score on day 37,EAE mice; 1 mg/kg,3.071
same,EAE score on the initial day,EAE mice; 1 mg/kg,0.214
same,average group score at the end of the experiment (day 42),"EAE mice; concentration of 0.1 μg/ml, control group score 2.86",1.93
same,cytokine secretion from IL-17A activated keratinocytes,keratinocytes [2]; IL-17A activated,decrease cytokine secretion
same,cytokine secretion from LPS and TNFα activated keratinocytes,keratinocytes [2]; LPS and TNFα activated,decrease cytokine secretion
same,cytokine secretion in keratinocytes,"keratinocytes [2]; stimulated by LPS, TNFα, or IL-17, medium collected after 48 hr",effective in decreasing cytokine secretion
same,macrophage infiltration (Iba-1 positive cells per field),macrophages,dose dependent effect
same,TNFα induced IKK activation in keratinocytes,IKK,significantly reduced TNFα induced IKK activation
same,concentration exhibiting the strongest inhibition of IKK activation (lowest concentration),IKK,0.1 mg/mL
same,Pruritus score,"[3]; 5 minutes after histamine, MPDY-1 1 μg/ml (A1)",3
same,Pruritus score,"[3]; 5 minutes after histamine, MPDY-1 10 μg/ml (A2)",2
same,Pruritus score,"[3]; 15 minutes after histamine, MPDY-1 1 μg/ml (A1)",1
same,Pruritus score,"[3]; 15 minutes after histamine, MPDY-1 10 μg/ml (A2)",0
same,"redness, inflammation and pruritus compared with control over the time course",[3]; topical application,"significantly attenuated redness, inflammation and pruritus"
same,Dermal closure (H&E),[4]; [5],17%
same,Epidermal closure (K14),[4]; [5],17%
same,Epidermal differentiation (Kl),[4]; [5],17%
same,Granulation tissue,[4]; [6],50%
same,Hypodermis,[4]; [6],10%
same,Severe inflammation,[4]; [6],30%
same,overall healing effect in diabetic wounds,[4]; 9 days post-wounding,only partial healing effects
same,activation of macrophages (MAC-2 positive cells per field),activated macrophages,significantly inhibited
